These compounds were tested against CDK2 (UniProt P24941) (assay: Enzyme Assay).
In the case of `FC(F)(F)COc1cncc(Nc2ccccc2)n1`, the IC50 is reported as 17 µM. In the case of `Fc1ccc(Nc2cncc(Cl)n2)cc1`, the IC50 is reported as 16 µM. Work on `OCCN(c1cncc(Cl)n1)C1CCCCC1` yielded an IC50 of 54 µM. Compound `NS(=O)(=O)CCNc1cncc(Cl)n1` has an IC50 of 60 µM. `CC(=O)Nc1ccc(Nc2cncc(Cl)n2)cc1` was tested, and the IC50 was 15 µM. `Clc1cncc(Nc2ccccc2)n1` gave an IC50 of 9 µM. `O=c1[nH]c2ccccc2n1-c1cncc(Cl)n1` showed an IC50 of 10 µM. In the case of `Clc1cncc(-n2cccn2)n1`, the IC50 is reported as 82 µM. `Clc1cncc(Nc2cccnc2)n1` was tested, and the IC50 was 27 µM. `Clc1cncc(NCCc2c[nH]cn2)n1` was tested, and the IC50 was 73 µM. `Clc1cncc(NC2CCCC2)n1` showed an IC50 of 52 µM. Work on `CC(C)c1nccn1-c1cncc(Nc2ccccc2)n1` yielded an IC50 of 12 µM. For `Clc1cncc(-n2cnc3ccccc32)n1`, the IC50 was 35 µM. `O[C@@H]1CCCC[C@H]1CN(c1cncc(Cl)n1)C1CCCCC1` was tested, and the IC50 was 12 µM. Work on `Oc1ccc(Nc2cncc(Cl)n2)cc1` yielded an IC50 of 24 µM. `NCCCN(c1cncc(Cl)n1)C1CCCCC1` was tested, and the IC50 was 4 µM. Work on `Clc1ccc(Nc2cncc(Cl)n2)nc1` yielded an IC50 of 8 µM. For `CC(C)CNc1cncc(Cl)n1`, the IC50 was 105 µM. With `CCOC(=O)c1ccc(CNc2cncc(Cl)n2)o1` the IC50 was 36 µM. `CSc1cncc(Nc2ccccc2)n1` gave an IC50 of 3 µM. `Clc1cncc(NC2CCCCC2)n1` gave an IC50 of 27 µM. `Clc1cncc(NCCNc2cncc(Cl)n2)n1` gave an IC50 of 43 µM. `Oc1cccc(Nc2cncc(Cl)n2)c1` was tested, and the IC50 was 6 µM. In the case of `CC(C)(C)c1cc(N)n(-c2cncc(Cl)n2)n1`, the IC50 is reported as 147 µM. In the case of `Clc1cncc(N2CCN(c3ccccc3)CC2)n1`, the IC50 is reported as 102 µM. Work on `Cc1cc(Nc2cncc(Cl)n2)[nH]n1` yielded an IC50 of 49 µM. Compound `c1ccc(Nc2cncc(-n3ccnc3)n2)cc1` has an IC50 of 5.5 µM. `Clc1cncc(N2CCc3ccccc3C2)n1` gave an IC50 of 98 µM. `Clc1cncc(NCc2cc(Oc3cncc(Cl)n3)no2)n1` was tested, and the IC50 was 40 µM. `NC(=O)c1sccc1Nc1cncc(Cl)n1` gave an IC50 of 9 µM. `Clc1cncc(NCc2ccc(Cl)s2)n1` was tested, and the IC50 was 32 µM. Compound `Cc1cc2cc(CNc3cncc(Cl)n3)ccc2[nH]1` has an IC50 of 14 µM. `NS(=O)(=O)c1cccc(Nc2cncc(Cl)n2)c1` was tested, and the IC50 was 7 µM. With `Clc1cncc(NC[C@H]2CCCN2)n1` the IC50 was 5 µM. `c1cn(-c2cncc(-n3ccnc3)n2)cn1` showed an IC50 of 105 µM. For `O=C(O)c1ccc(Nc2cncc(Cl)n2)nc1`, the IC50 was 68 µM. `Clc1cncc(Nc2ccccn2)n1` was tested, and the IC50 was 17 µM. `Clc1cncc(NC(c2ccccc2)c2ccccc2)n1` showed an IC50 of 23 µM. `Clc1cncc(N(Cc2ccccc2)C2CCCCC2)n1` was tested, and the IC50 was 64 µM.

Source: the Kinase Knowledgebase extract (Sharma et al. 2016)
